pIC50: −log10 of the molar value. Where two headings read alike, the source gives them in different places.

The text below walks through data of patent US11987579B2 (Duke University, priority 2018, dated 2024).

In one data set the test system is DLD-1. Nature of the data set: Inhibition of cell proliferation by MTS assay, DLD-1. Type of data set: cell-based. To be noted: Homo sapiens; DLD-1, MTS assay at 72 hr. On the procedure:
Colon cancer cell lines SW948, HT-29, HCT116, CRC240, SW480, and DLD-1 were used in the cell proliferation assay. All cell lines, except CRC240, were from ATCC. CRC240, a colorectal cancer patient derived xenograft (PDX) cell line, was obtained from the Hsu lab (Duke University). Generation of CRC240 cell line was previously reported. SW948 cells were cultured in Leibovitz's medium (Gibco, catalog number 21083-027). HT-29 and HCT116 cells were cultured in McCoy's 5A medium (Gibco, catalog number 16600-082). SW480 cells were cultured in MEM medium. CRC240 and DLD-1 cells were cultured in RPMI medium (Gibco, catalog number 11875-093). All media were supplemented with 10% FBS and 100 U/ml penicillin-streptomycin. […] IC50 values calculated using Graphpad Prism.
A general note: Formazan colour is commonly taken as a measure of viable cells.

For data set [1] the following is noted: niclosamide 200 mg/kg oral, mice, non-compartmental, cited from earlier work.
For a further data set, the system named is CRC240 PDX tumors. Nature of the data set: CRC240 PDX xenograft tumor study. Type of data set: in vivo, NOD/SCID mice. Particulars: 11 days. On the procedure:
The development of CRC240 PDX was previously reported (Lu et al. PLoS One 2017, 12, e0169439). Briefly, CRC240 PDX tissue were wash in PBS and then minced in PBS at 150 mg/mL. 200 μL of the PDX tissue suspension were implanted into the flanks of NOD/SCID mice. When PDX tumor volume reached about 100 mm^3, mice were randomized and were orally dosed for 11 days daily byniclosamide, DK419, or the vehicle control (10% 1-methyl-2-pyrrolidmone and 90% PEG300). […] DK419 was dissolved in the vehicle at 0.2 mg/ml and dosed at 1 mg/kg. Tumor size and body weight were measured at day 0, 4, 8, and 11. The day after the last dose, animals were euthanized and tumor samples were collected and processed for Western blot analysis. Briefly, tumor samples were lysed in RIPA Buffer (Thermofisher Scientific, catalog number 89900). Sample lysates were subjected to Western blot using antibodies to Survivin, c-Myc, and Axin2 as described above. β-actin was used as a loading control.

The next data set has as its system HCT116 cells. Particulars: 0.5 and 1.5 μM; cited from earlier work.
In data set [2] the test system is Wnt/β-catenin target gene protein levels. The data set can be described thus: Evaluation of Wnt signaling inhibition by Western blot. Particulars: 5 μM, 18 h; HCT116, SW-480 and CRC240 cells. Type of data set: cell-based. Here is the method: All cells were plated in 6 well-plates and allowed to attach overnight in a 5% CO2 incubator at 37° C. to reach 50-70 percent confluency. The cells were then treated with the indicated compound for 18 hours. Whole cell lysates were prepared by adding 200 μL 1.5× Laemmli sample buffer. Cytosolic lysates were prepared by treating cells with hypotonic buffer and dispersing cell aggregates by drawing the lysate buffer in and out a syringe equipped with 25G×1 needles. The cytosolic lysate was centrifuged at 15,000 rpm for 120 minutes, 200 μL of cytosol lysate was collected and 67 μL of 4× Laemmli sample buffer was added. Whole cell lysates were subjected to Western blot analysis using antibodies to c-Myc (Santa Cruz Biotechnology, catalog number SC-40), Cyclin D1 (Cell Signaling Technology, catalog number 2978), and Survivin (Cell Signaling Technology, catalog number 2808). Cytosol lysate were subjected to Western blot analysis using antibodies to β-catenin (Santa Cruz Biotechnology SC-7963) and Axin2 (Cell Signaling Technology, catalog number 2151). An antibody to β-actin (Santa Cruz Biotechnology, catalog number SC-47798) was used as a loading control.

Data set [3] can be described thus: Pharmacokinetic analysis of DK419 in mouse plasma after oral dose. Type of data set: in vivo, NOD/SCID mice. Particulars: mice; for Cmax: read-out: Cmax (second line). On the procedure: DK419 was dissolved in 10% N-Methyl pyrrolidinone (Sigma, catalog number 328634) and 90% PEG300 (Sigma, catalog number 20237) at 0.2 mg/mL, and dosed orally to NOD/SCID mice (n=4) at 1 mg/kg. Blood samples (20 μL) were collected serially from tail vein into vials containing 1 μL of 1000 U/mL heparin at the following time-points: pre-dose, 0.25, 0.5, 1, 2, 4, 8, 24, 48, and 72 h after drug administration. After centrifugation at 1300 g for 5 min at room temperature, plasma was separated and stored at −80° C. until the analysis.
Quantification of DK419 in mouse plasma was started by vigorous agitation of 4 μL sample, 10 μL of 20 ng/mL DK4-106-3 (in-house made internal standard analog), 20 μL of water, and 100 μL of ethyl-acetate. After centrifugation at 16,000 g for 5 min at room temperature, 80 μL of organic (upper) layer was dried under nitrogen stream, residue reconstituted with a mixture of 50% mobile phase A (10 mM ammonium acetate, 0.1% formic acid) and 50% mobile phase B (methanol), and 5 μL injected into LC/MS/MS system. Analysis was performed on Shimadzu series 20A LC/Applied Biosystems/SCIEX API 4000 QTrap MS/MS instrument. Column: Agilent Eclipse 4.6×50 ram, 1.8 μm at 50° C. Elution gradient: 0-2 min 50-90% B, 2-2.5 min 90% B, 2.5-2.7 min, 90-50% B; flow […]. MS/MS transitions followed: 405.8/218.9 (DK419) and 331.8/311.8 (DK4-106-3; int. std.). Run time: 5 min. Calibration samples were prepared by adding pure DK419 to pooled mouse plasma in 2.4 ng/mL (LLOQ)-1000 ng/mL range and analyzed alongside the PK study samples. The calibration curve was linear (r=0.999).

Setting [4] is: DK419 1 mg/kg oral, compartmental.
Setting [5] is: DK419 1 mg/kg oral, non-compartmental.

As a reminder, the pIC50 is the negative decadic logarithm of the IC50, by convention in mol/L. Lower therefore signals a large IC50. One may read the MRT as a mean duration of stay, worked out from the concentration-time curve. In general, Cmax refers to the highest concentration seen after dosing. As for `O=C(Nc1ccc([N+](=O)[O-])cc1Cl)c1cc(Cl)ccc1O` [Niclosamide, reference compound], the pIC50 with DLD-1 was 5.75. Further, the AUC0-LAST in data set [1] (0-24 h) is 1010 ng·h/mL (per kg BW). In data set [1], the AUCinf was 1020 ng·h/mL (per kg BW) and the mean residence time (MRT) is given as 6.8 h. Moreover, the Cmax in data set [1] (read-out: Cmax (second line)) was 2730 nM. In addition, in the data set on CRC240 PDX tumors (72 mg/kg (220 μmol/kg) oral once a day, vs vehicle), the “growth of CRC240 PDX tumors (tumor volume)” value was “inhibited tumor growth”. Further, the body weight result in the data set with CRC240 PDX tumors (72 mg/kg oral once a day) is “Neither DK419 nor niclosamide produced a change in body weight”. For the same compound, the “oxygen consumption rate in HCT116 cells” value in the data set with HCT116 cells was “caused oxygen consumption rate to increase”. Besides, the “levels of Axin2, β-catenin, c-Myc, Cyclin D1 and Survivin by Western blot” value in data set [2] is reported as “reduced levels”.
The term Tmax denotes the time at which the peak concentration occurs. Regarding `O=C(Nc1ccc(C(F)(F)F)cc1)c1cc(Cl)cc2nc(C(F)(F)F)[nH]c12` [DK419, 6-chloro-2-(trifluoromethyl)-N-(4-(trifluoromethyl)phenyl)-1H-benzo[d]imidazole-4-carboxamide], the negative logarithm of the IC50 (pIC50) in the data set on DLD-1 was 6.46. Besides, the “growth of CRC240 PDX tumors (tumor volume)” value in the data set with CRC240 PDX tumors (1 mg/kg (2.4 μmol/kg) oral once a day, vs vehicle) is reported as “inhibited the growth of CRC240 PDX tumors compared to vehicle control”. In addition, the body weight result in the data set on CRC240 PDX tumors (1 mg/kg oral once a day) was “Neither DK419 nor niclosamide produced a change in body weight”. For the same compound, the “levels of Wnt/β-catenin target genes (Axin2, Survivin, c-Myc) in tumors, Western blot” value with CRC240 PDX tumors (1 mg/kg oral once a day, tumors collected day after last dose, vs vehicle) is given as “reduced significantly”. In data set [3] (setting [4]), the AUCinf was 16300 ng·h/mL (per kg BW), the AUCinf/DOSE is 16.3 µg·h/mL (per mg), the t1/2-absorption stood at 2.0 h and the t1/2-elimination was found to be 10.8 h. For the same compound, the maximum concentration (Cmax) in data set [3] (setting [4]) amounted to 1790 nM. The Tmax in data set [3] (DK419 1 mg/kg oral, compartmental, 1st order extrav. input, 1st order elimination) stood at 5.85 h. Besides, in data set [3] (setting [5]), the AUCinf was 16900 ng·h/mL (per kg BW), the AUCinf/DOSE is 16.9 µg·h/mL (per mg), the CL/F is 0.06 L/h (per kg BW) and the mean residence time MRT came to 15.8 h. In data set [3] (setting [5]), the t1/2-elimination turned out to be 9.2 h and the maximum concentration (Cmax) amounted to 1840 nM. Moreover, the Tmax in data set [3] (DK419 1 mg/kg oral, non-compartmental extravascular input) amounted to 4.5 h. The AUC0-LAST in data set [3] (DK419 1 mg/kg oral, non-compartmental, 0-72 h) is 16800 ng·h/mL (per kg BW). For the same compound, the CL/F in data set [3] (NOD/SCID, mouse, plasma, DK419 1 mg/kg oral, compartmental, read-out: CL/F (converted)) is 1 mL/min/kg. Moreover, in data set [3] (single 1 mg/kg oral dose), the “time for which plasma levels were sustained” value was “more than 24 hours”. In data set [3] (single 1 mg/kg oral dose, 24 hours), the “plasma concentration at 24 hours relative to its IC50 in the TOPFlash and MTS assays” value stood at 3 fold. Moreover, in data set [2], the “levels of Axin2, β-catenin, c-Myc, Cyclin D1 and Survivin by Western blot” value is “reduced levels”.
